From BigSolDB 2.1

Oc1ccc(OCc2ccccc2)cc1
solubility (mole fraction)
Conditions	283.15 K	288.15 K	293.15 K	298.15 K	303.15 K	308.15 K	313.15 K	318.15 K	323.15 K	328.15 K
in ethanol	0.0483	0.056	0.0644	0.0737	0.0846	0.0956	0.109	0.123	0.137	0.155
in ethylene glycol	0.0053	0.00664	0.00822	0.0101	0.0125	0.0149	0.018	0.0216	0.0257	0.0302
in isopropanol	0.0217	0.0261	0.0308	0.0365	0.0425	0.0503	0.0583	0.0671	0.0778	0.0896
in n-propanol	0.0381	0.0446	0.052	0.0605	0.0702	0.0804	0.0931	0.106	0.12	0.137
in water	3.57e-06	4.49e-06	5.64e-06	7.04e-06	8.71e-06	1.07e-05	1.3e-05	1.57e-05	1.91e-05	2.29e-05
